# Data as given in patent US20050220726A1, “Use of sugar esters in cosmetic and/or pharmaceutical preparations” (priority 2003, published 2005).
# Key:
# [1] = tested on: melanocytes (B16 cell line); test: Inhibition of melanin synthesis in B16 melanocytes; type: cell-based; settings: 3 days, blank value = 100
# Experimental: Melanin is the pigment responsible for the color of the skin and hair. It is formed in special organelles, the melanosomes, which occur in the melanocytes of the basal layer of the human epidermis. The biosynthesis of melanin begins with the amino acid tyrosine which is oxidized to DOPA (dihydroxyphenylalanine) in the presence of tyrosinase. The DOPA then polymerizes to melanin. […] After incubation for 3 days at 37° C./5% CO2, the nutrient medium was replaced by a solution containing the test substances in various concentrations. After incubation for another 3 days, the cell protein content (Bradford's method) and the content of synthesized melanin were determined through the optical density of the homogenizate at 475 nm. The results are expressed in % against a blank value and are set out in Table 7.
# human fibroblasts = test: Anti-stress effect on UV-A-damaged fibroblasts; type: cell-based; settings: + UV-A 20 J/cm^2; for Cell proteins: blank sample = 100; for GSH/proteins: blank sample = 100, blank + UV-A = 65
# Experimental: UV-A radiation in the 320 to 400 nm range induces oxidative stress which is mainly produced by the activation of photosensitive biological components which in turn catalyze the formation of ROS-like superoxide anions, hydrogen peroxide and singlet oxygen atoms. The anti-UV-A effect was tested on fibroblasts because UV-A radiation penetrates through the dermis where it causes oxidative damage by lipoperoxidation of the cell membrane and a reduction in the content of reduced glutathione (GHS). To this end, human fibroblasts were cultivated as described in a), exposed to UV-A rays (20 J/cm^2) and the cell counts and the GSH content subsequently determined. The results are set out in Table 3, where they are expressed in %-rel. against a blank sample, and represent the results of 3 series of measurements with triple determination.
# [2] = tested on: bacterial collagenase (clostridium histolyticum); test: Collagenase inhibition on FITC-marked gelatin; type: biochemical; settings: 60 mins. at 20° C.
# Experimental: In the event of inflammation, skin proteases, for example collagenase, are released from the polymorphonuclear neutrophilic granulocytes or macrophages. A similar process takes place in the skin of elderly people on exposure to UV rays. As already mentioned, the proteases—also known as matrix metalloproteases (MMPs) through their content of central zinc ions—catalyze the fragmentation of connective tissue proteins. The test substances were tested for collagenase inhibition using bacterial collagenase (clostridium histolyticum) on gelatin marked with fluorochromium (FITC, Calbiochem) as a natural nutrient medium. The incubation time was 60 mins. at 20° C.; the hydrolysis of the substrate was monitored by fluorescence at 393 nm (excitation at 328 nm). The results are set out in Table 6 as the collagenase inhibition in %.
# human keratinocytes [3] = test: Growth inhibition on human keratinocytes with EGF; type: cell-based; settings: with EGF 10 ng/ml, 3 days, control = 100, control with EGF = 167
# Experimental: Increased proliferation and differentiation of keratinocytes of the hair matrix leads to improved longer hair growth. The following test was carried out to determine the potential of the sugar esters for inhibiting hair growth which is visibly reflected in a reduction in the proliferation of human keratinocyte culture in vitro.
# To this end, human keratinocytes were cultivated in a standard cell culture medium containing foetal calf serum (FCS). After incubation for 1 day at 37° C./5% CO2, the growth medium was replaced by standard medium containing 10 ng/ml epidermal growth factor (EGF) and various concentrations of sugar esters dissolved in ethanol (1% by volume).
# After incubation for three days, the number of living cells was determined by determining the cell protein content by the Bradford method [Bradford, M. M., A rapid and sensitive method for the quantitation of microgram quantities of protein utilizing the principle of protein-dye binding. Anal. Biochem. (1977), Vol. 72, pp. 248-254].
# The results of Table 8 represent the values of triple determinations on two batches expressed in % against a control of cell culture medium without sugar ester.
# [4] = tested on: human leukaemic granulocytes; test: Anti-inflammatory activity: respiratory burst of granulocytes (zymosan, luminol); type: cell-based; settings: + stimulation (zymosan), blank + stimulation = 100
# Description: In the course of cutaneous inflammation, leucocytes, such as the polymorphonuclear neutrophilic granulocytes (PMNs) for example, are stimulated by peptides, such as cytokines for example, to emit messenger substances, such as leucotriene for example, which are released from activated or necrotic cells in the dermis. These activated PMNs release not only pro-inflammatory cytokinins, leucotrienes and proteases, but also ROS, such as superoxides and hypochlorite anions for example, of which the function is to destroy penetrated pathogenic germs or fungi. This activity of the PMNs during the inflammation is known as so-called respiratory burst. To investigate to what extent the test extracts can prevent or reduce the respiratory burst, a cell line of human leukaemic granulocytes of these PMNs was incubated together with the test substances at 37° C. and 5% by vol. CO2. After the respiratory burst had been initiated by addition of a yeast extract (zymosan) to the cell solution, the release of superoxide anions was determined through their reaction with luminol.
# human keratinocytes [5] = test: Protecting cells against UVB radiation (cell DNA, LDH and PGE2 release); type: cell-based; settings: + UV-B 50 mJ/cm^2; for Cell DNA: blank = 100, control + UV-B = 33; for LDH released / PGE2 released: control + UV-B = 100
# Experimental: UVB was selected as the stress factor because the rays produce cutaneous inflammation (erythemas, oedemas) by activating enzymes that release arachidonic acid, such as phospholipase A2 (PLA2) for example. […] The influence of UVB rays on keratinocytes was determined in vitro through the release of cytoplasmatic enzymes, such as LDH (lactate dehydrogenase) for example, which runs parallel to the cell damage and the formation of PGE2. […] The quantity of keratinocytes was determined after trypsination via a cell counter while the LDH concentration was enzymatically determined. The results are set out in Table 4, where they are expressed as the activity in %-rel. against a standard, and represent the mean value of two test series involving double determination.
# [6] = tested on: Staphylococcus epidermidis; test: Agar diffusion method, inhibition zones; type: cell-based; settings: filter paper with 20 μl test substance; 18 to 24 h at 37° C.
# Experimental: (§1) The antibacterial activity of the test substances was tested by the diffusion method on agar plates or the agar dilution method. In this method, a round filter paper of defined diameter is first impregnated with the test solution and then applied to the surface of an agar plate inoculated beforehand with the test microorganisms. The size of the inhibition zones is then determined after defined times. In particular, it is possible by this method to determine the MIC (Minimum Inhibitory Concentration) as the lowest concentration of test substance with which complete inhibition of the microorganisms can be obtained.
# (§2) Agar diffusion method. The inoculum was prepared using a fresh culture in a stationary growth phase (after ca. 18-24 h) in a BHI solution (brain-heart Infusion). The bacterial suspension was adjusted to 0.5 MacFarland units, corresponding to 1.5 10^8 colony-forming units (cfu)/ml; the suspension was then diluted with a sodium chloride solution (1:100) to adjust a value of 1.5 10^6 cfu/ml. Mueller-Hinton agar (Staphylococcus epidermidis, Staphylococcus aureus) and Wilkins-Chalgrens agar containing 5% by weight sheep's blood (Propionibacterium acnes) were then sterilized for 15 mins. at 121° C. and then placed in Petri dishes. 2 to 4 ml of the bacterial suspension were then added to the Petri dishes, followed by drying at room temperature. The filter papers were impregnated with 20 μl of the test substances and applied to the surface of the agar plates. The inoculated Petri dishes were incubated for 18 to 24 h at 37° C. (the Petri dishes containing Propionibacterium acnes under anaerobic conditions) and the antimicrobial activity was then determined by determination of the growth inhibition zones. The results are set out in Table 10 and represent the diameters of the inhibition zones in mm.
# Staphylococcus aureus = test: Agar diffusion method, inhibition zones; type: cell-based; settings: filter paper with 20 μl test substance; 18 to 24 h at 37° C.
# Experimental: as §1, §2
# Propionibacterium acnes = test: Agar diffusion method, inhibition zones; type: cell-based; settings: filter paper with 20 μl test substance; 18 to 24 h at 37° C., anaerobic
# Experimental: as §1, §2
substance,measurement,setting,value
Fructose dicaprate,Cell melanin,[1]; conc. 0.003 % w/v,88 %-rel.
same,Cell proteins,[1]; conc. 0.003 % w/v,105 %-rel.
same,Cell melanin,[1]; conc. 0.01 % w/v,41 %-rel.
same,Cell proteins,[1]; conc. 0.01 % w/v,91 %-rel.
Fructose monostearate,Cell melanin,[1]; conc. 0.001 % w/v,85 %-rel.
same,Cell proteins,[1]; conc. 0.001 % w/v,104 %-rel.
same,Cell melanin,[1]; conc. 0.003 % w/v,34 %-rel.
same,Cell proteins,[1]; conc. 0.003 % w/v,91 %-rel.
Fructose palmitate,Cell proteins,human fibroblasts; conc. 0.003 % w/v,91 %-rel.
same,GSH/proteins,human fibroblasts; conc. 0.003 % w/v,81 %-rel.
same,Collagenase inhibition,[2]; Conc. [w/v] 0.03,4 %-rel.
same,Collagenase inhibition,[2]; Conc. [w/v] 0.1,41 %-rel.
same,Collagenase inhibition,[2]; Conc. [w/v] 0.3,78 %-rel.
same,Cell protein content in %,human keratinocytes [3]; conc. 0.001 % w/v,166%
same,Cell protein content in %,human keratinocytes [3]; conc. 0.003 % w/v,143%
same,Cell protein content in %,human keratinocytes [3]; conc. 0.01 % w/v,105%
same,Cell counts,[4]; conc. 0.001 % w/v,97 %-rel.
same,ROS released,[4]; conc. 0.001 % w/v,81 %-rel.
same,Cell counts,[4]; conc. 0.01 % w/v,98 %-rel.
same,ROS released,[4]; conc. 0.01 % w/v,42 %-rel.
Fructose stearate,Cell proteins,human fibroblasts; conc. 0.003 % w/v,83 %-rel.
same,GSH/proteins,human fibroblasts; conc. 0.003 % w/v,79 %-rel.
same,Cell melanin,[1]; conc. 0.006 % w/v,49 %-rel.
same,Cell proteins,[1]; conc. 0.006 % w/v,105 %-rel.
same,Cell melanin,[1]; conc. 0.01 % w/v,21 %-rel.
same,Cell proteins,[1]; conc. 0.01 % w/v,76 %-rel.
same,Collagenase inhibition,[2]; Conc. [w/v] 0.3,45 %-rel.
same,Cell counts,[4]; conc. 0.001 % w/v,100 %-rel.
same,ROS released,[4]; conc. 0.001 % w/v,88 %-rel.
same,Cell counts,[4]; conc. 0.01 % w/v,155 %-rel.
same,ROS released,[4]; conc. 0.01 % w/v,26 %-rel.
Glucose caprate,Cell DNA,human keratinocytes [5]; conc. 0.003 % w/v,28 %-rel.
same,LDH released,human keratinocytes [5]; conc. 0.003 % w/v,72 %-rel.
same,PGE2 released,human keratinocytes [5]; conc. 0.003 % w/v,50 %-rel.
same,Cell DNA,human keratinocytes [5]; conc. 0.01 % w/v,36 %-rel.
same,LDH released,human keratinocytes [5]; conc. 0.01 % w/v,48 %-rel.
same,PGE2 released,human keratinocytes [5]; conc. 0.01 % w/v,28 %-rel.
same,Cell proteins,human fibroblasts; conc. 0.003 % w/v,109 %-rel.
same,GSH/proteins,human fibroblasts; conc. 0.003 % w/v,144 %-rel.
Glucose caprylate,"Inhibition zones, Staphylococcus epidermidis",[6],0 mm
same,"Inhibition zones, Staphylococcus aureus",Staphylococcus aureus,11 mm
same,"Inhibition zones, Propionibacterium acnes",Propionibacterium acnes,12 mm
Glucose laurate,Cell DNA,human keratinocytes [5]; conc. 0.001 % w/v,17 %-rel.
same,LDH released,human keratinocytes [5]; conc. 0.001 % w/v,105 %-rel.
same,PGE2 released,human keratinocytes [5]; conc. 0.001 % w/v,107 %-rel.
same,Cell DNA,human keratinocytes [5]; conc. 0.003 % w/v,54 %-rel.
same,LDH released,human keratinocytes [5]; conc. 0.003 % w/v,49 %-rel.
same,PGE2 released,human keratinocytes [5]; conc. 0.003 % w/v,23 %-rel.
same,Cell proteins,human fibroblasts; conc. 0.0001 % w/v,95 %-rel.
same,GSH/proteins,human fibroblasts; conc. 0.0001 % w/v,91 %-rel.
same,"Inhibition zones, Staphylococcus epidermidis",[6],16 mm
same,"Inhibition zones, Staphylococcus aureus",Staphylococcus aureus,14 mm
same,"Inhibition zones, Propionibacterium acnes",Propionibacterium acnes,10 mm
same,Collagenase inhibition,[2]; Conc. [w/v] 0.1,28 %-rel.
Glucose palmitate,Cell DNA,human keratinocytes [5]; conc. 0.001 % w/v,32 %-rel.
same,LDH released,human keratinocytes [5]; conc. 0.001 % w/v,68 %-rel.
same,PGE2 released,human keratinocytes [5]; conc. 0.001 % w/v,63 %-rel.
same,Cell DNA,human keratinocytes [5]; conc. 0.003 % w/v,32 %-rel.
same,LDH released,human keratinocytes [5]; conc. 0.003 % w/v,68 %-rel.
same,PGE2 released,human keratinocytes [5]; conc. 0.003 % w/v,65 %-rel.
same,Cell proteins,human fibroblasts; conc. 0.003 % w/v,119 %-rel.
same,GSH/proteins,human fibroblasts; conc. 0.003 % w/v,114 %-rel.
same,Cell counts,[4]; conc. 0.001 % w/v,102 %-rel.
same,ROS released,[4]; conc. 0.001 % w/v,99 %-rel.
same,Cell counts,[4]; conc. 0.01 % w/v,91 %-rel.
same,ROS released,[4]; conc. 0.01 % w/v,58 %-rel.
Sucrose stearate,Cell melanin,[1]; conc. 0.001 % w/v,75 %-rel.
same,Cell proteins,[1]; conc. 0.001 % w/v,89 %-rel.
same,Cell melanin,[1]; conc. 0.003 % w/v,18 %-rel.
same,Cell proteins,[1]; conc. 0.003 % w/v,70 %-rel.
Trehalose caprate,Cell proteins,human fibroblasts; conc. 0.00003 % w/v,120 %-rel.
same,GSH/proteins,human fibroblasts; conc. 0.00003 % w/v,87 %-rel.
same,"Inhibition zones, Staphylococcus epidermidis",[6],0 mm
same,"Inhibition zones, Staphylococcus aureus",Staphylococcus aureus,10 mm
same,"Inhibition zones, Propionibacterium acnes",Propionibacterium acnes,10 mm
same,Cell melanin,[1]; conc. 0.001 % w/v,53 %-rel.
same,Cell proteins,[1]; conc. 0.001 % w/v,100 %-rel.
same,Cell melanin,[1]; conc. 0.003 % w/v,23 %-rel.
same,Cell proteins,[1]; conc. 0.003 % w/v,75 %-rel.
same,Collagenase inhibition,[2]; Conc. [w/v] 0.3,52 %-rel.
Trehalose laurate,Cell proteins,human fibroblasts; conc. 0.003 % w/v,119 %-rel.
same,GSH/proteins,human fibroblasts; conc. 0.003 % w/v,90 %-rel.
same,Collagenase inhibition,[2]; Conc. [w/v] 0.1,21 %-rel.
